Laboratory results taken from ChEMBL document CHEMBL1201862, “PubChem BioAssay data set” (2004).
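Test compounds were applied to cells in 96-well plates for 48 hours at 5 doses. GI50 = concentration required for 50% inhibition of growth.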 Calls of active or inactive are those of the source. Cut-off read from the data, not from the text of the source: active = GI50 up to about 1.1 µM and inactive = higher.

Columns and labels:
Experiment in all cases: NCI tumour cell line growth inhibition, 48 h
HL-60 = test system: HL-60
HCT-15 = test system: HCT-15
SK-MEL-28 = test system: SK-MEL-28
HCT-116 = test system: HCT-116
SNB-19 = test system: SNB-19
KM12 = test system: KM12
MDA-MB-231 = test system: MDA-MB-231
K562 = test system: K562
MDA-MB-435 = test system: MDA-MB-435
SW-620 = test system: SW-620
OVCAR-8 = test system: OVCAR-8
SN12C = test system: SN12C
CCRF-CEM = test system: CCRF-CEM
MDA-N = test system: MDA-N
M14 = test system: M14
OVCAR-5 = test system: OVCAR-5
BT-549 = test system: BT-549
NCI-H460 = test system: NCI-H460
NCI-H522 = test system: NCI-H522
HCC 2998 = test system: HCC 2998

| Structure (SMILES) | GI50 (HL-60) | GI50 (HCT-15) [µM] | GI50 (SK-MEL-28) | GI50 (HCT-116) | GI50 (SNB-19) | GI50 (KM12) | GI50 (MDA-MB-231) | GI50 (K562) | GI50 (MDA-MB-435) | GI50 (SW-620) | GI50 (OVCAR-8) | GI50 (SN12C) | GI50 (CCRF-CEM) | GI50 (MDA-N) | GI50 (M14) | GI50 (OVCAR-5) | GI50 (BT-549) | GI50 (NCI-H460) | GI50 (NCI-H522) | GI50 (HCC 2998) |
| --- | --- | --- | --- | --- | --- | --- | --- | --- | --- | --- | --- | --- | --- | --- | --- | --- | --- | --- | --- | --- |
| COc1ccccc1NC(=S)Nc1cc(C)ccn1 | > 100 µM (inactive) | > 100 | > 100 µM (inactive) | > 100 µM (inactive) | > 100 µM (inactive) | > 100 µM (inactive) | 20 µM (inactive) | > 100 µM (inactive) | > 100 µM (inactive) | > 100 µM (inactive) | > 100 µM (inactive) | > 100 µM (inactive) | > 100 µM (inactive) | > 100 µM (inactive) | > 100 µM (inactive) | > 100 µM (inactive) | > 100 µM (inactive) | > 100 µM (inactive) | > 100 µM (inactive) | – |
| O=C(O)c1ccn(-c2cccc(-n3ccc(C(=O)O)n3)n2)n1 | > 100 µM (inactive) | > 100 | > 100 µM (inactive) | > 100 µM (inactive) | > 100 µM (inactive) | > 100 µM (inactive) | > 100 µM (inactive) | > 100 µM (inactive) | > 100 µM (inactive) | > 100 µM (inactive) | > 100 µM (inactive) | > 100 µM (inactive) | > 100 µM (inactive) | > 100 µM (inactive) | > 100 µM (inactive) | > 100 µM (inactive) | > 100 µM (inactive) | > 100 µM (inactive) | > 100 µM (inactive) | – |
| Nc1ncc2ncn(C3CCC(CO)O3)c2n1 (centres undefined) | > 100 µM (inactive) | > 100 | > 100 µM (inactive) | > 100 µM (inactive) | > 100 µM (inactive) | > 100 µM (inactive) | > 100 µM (inactive) | > 100 µM (inactive) | > 100 µM (inactive) | > 100 µM (inactive) | > 100 µM (inactive) | > 100 µM (inactive) | > 100 µM (inactive) | > 100 µM (inactive) | > 100 µM (inactive) | > 100 µM (inactive) | > 100 µM (inactive) | > 100 µM (inactive) | > 100 µM (inactive) | – |
| CC(=O)OCC1OC(n2c(Br)nc3c2c(=O)n(C)c(=O)n3C)C(OC(C)=O)C1OC(C)=O (centres undefined) | 21.3 µM (inactive) | > 100 | > 100 µM (inactive) | 35.1 µM (inactive) | 74.8 µM (inactive) | 64.9 µM (inactive) | > 100 µM (inactive) | 53.3 µM (inactive) | 29.4 µM (inactive) | 76.9 µM (inactive) | 42 µM (inactive) | 79.4 µM (inactive) | – | 33.6 µM (inactive) | 77.1 µM (inactive) | > 100 µM (inactive) | 28.8 µM (inactive) | 84.3 µM (inactive) | 45.9 µM (inactive) | > 100 µM (inactive) |
| c1ccc2cc(OCC3CO3)c(OCC3CO3)cc2c1 (centres undefined) | 1.53 µM (inactive) | 4.63 | 11.9 µM (inactive) | 1.3 µM (inactive) | 5.3 µM (inactive) | 5.7 µM (inactive) | 14.5 µM (inactive) | 3.73 µM (inactive) | 10.1 µM (inactive) | 1.91 µM (inactive) | 2.94 µM (inactive) | 2.37 µM (inactive) | 0.16 µM (active) | 10.1 µM (inactive) | 1.64 µM (inactive) | 11.4 µM (inactive) | 1.45 µM (inactive) | 4.2 µM (inactive) | 1.87 µM (inactive) | – |
| Nc1csc(-c2scc3c2OCCO3)c1N | 20.5 µM (inactive) | 17.7 | 17.5 µM (inactive) | 20 µM (inactive) | 32.7 µM (inactive) | 20.4 µM (inactive) | 20.6 µM (inactive) | 24.4 µM (inactive) | 15.5 µM (inactive) | 26.2 µM (inactive) | 16.1 µM (inactive) | 17.3 µM (inactive) | – | 15.4 µM (inactive) | 17.8 µM (inactive) | 17.6 µM (inactive) | 16.5 µM (inactive) | 22.5 µM (inactive) | 16.3 µM (inactive) | 22.4 µM (inactive) |
